Values after ≈ are worked out from the molar mass of the structure shown. Read-outs that look alike come from different tables or passages of the source.

One experiment relates to guinea-pig ureters. The experiment is described as follows: Antispastic activity in vitro: spontaneous motility of guinea-pig ureters. As to conditions: for IC50: Cavia porcellus. The source says: The isotonic contractions were detected by means of a force transducer and recorded. […] A given concentration of the product under test was then introduced into the bath and left in contact with the prepared specimen for five minutes, after which the ureter was washed until its own spontaneous activity was re-established.

The subject of another experiment is mouse. Briefly: Anxiolytic activity in the mouse, Black and White Box test. In kind it is in vivo. The conditions noted are these: for TOTAL MOV.: five minutes. As for the experimental part:
In order to confirm the hypothesis that the potent activity of some of the compounds of the invention against central CCK-B may be correlated with a possible anxiolytic activity, this potential activity was evaluated in the mouse with the use of the "Black and White Box test". This experimental model, which was carried out according to Costall et al. [Pharm. Biochem. Behav. 32 (1989), 777-785] used a box with dimensions of 45×21×21 (h) cm. divided into two compartments which communicated with each other by means of a 13×5 cm hole. The smaller compartment (1/3 of the total area) had black walls, whereas the larger had transparent walls and was illuminated by a lamp which was placed 20 cm above the box and supplied light at 20 W. Under the floor was an activity meter which registered the movements performed by the animal in the individual compartments. The experiment was started by placing the animal in the centre of the illuminated box; as well at its movements, the time which the animal spent in the dark and in the light and the number of times it moved between the 2 compartments were recorded for five minutes. In general, a control animal tended preferably to stay in the dark compartment where it felt better protected from an unusual enviromental situation which put it in a state of anxiety. In this experimental model ( see the reference cited above), a compound having anxiolytic activity decreased the % of movements into the dark in comparison with the total movements, increased the movements between the two light-dark compartments, and increased the % of the total time time spent in the light. The results obtained are given in Table 5 below in which the activities obtained with the compound 1 (the rectus series ) and its enantiomer 2 (sinister) tested in comparison with diazepam and the CCK-B antagonist L365-260.

Experiment [1] deals with T1, central CCK-B receptors (guinea pig cortical membrane) (Cavia porcellus, UniProt H0VZC5).
T1 construct: Cerebral cortices of white male guinea pigs were therefore used; from tissue; host or cells: guinea pig cerebral cortex membranes
T1 sequence (H0VZC5 1-426): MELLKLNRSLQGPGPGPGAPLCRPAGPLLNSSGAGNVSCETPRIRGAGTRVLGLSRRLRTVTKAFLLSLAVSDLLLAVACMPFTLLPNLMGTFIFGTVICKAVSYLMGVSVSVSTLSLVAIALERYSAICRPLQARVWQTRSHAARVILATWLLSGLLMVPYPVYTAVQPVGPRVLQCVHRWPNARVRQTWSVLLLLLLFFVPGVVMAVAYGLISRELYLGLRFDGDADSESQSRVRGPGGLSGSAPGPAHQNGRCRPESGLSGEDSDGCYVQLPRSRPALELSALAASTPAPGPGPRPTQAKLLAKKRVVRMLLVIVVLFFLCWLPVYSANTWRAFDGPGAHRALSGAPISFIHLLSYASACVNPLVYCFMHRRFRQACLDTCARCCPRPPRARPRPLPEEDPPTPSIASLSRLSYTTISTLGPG
Briefly: Inhibition of binding of (3-H)[N-methyl-N-leucine]CCK-8 to guinea pig cortical membranes (anti-CCK-B). As for the experimental part:
Cerebral cortices of white male guinea pigs were therefore used, according to the method mentioned above, so as to obtain a membrane content/ml corresponding to about 300 mcg of proteins/mi. The membranes were incubated together with the radioactive tracer and the compounds under test for 150 minutes at 25° C. After the supernatant liquid had been discarded, the radioactivity associated with the pellet was determined with a liquid scintillator.

Where [2] appears, read: force of the contractions, five minutes contact, 37° C., read-out: IC50 (force), inhibition of the spontaneous motility of guinea-pig ureters in vitro.
Setting [3] is: frequency of the contractions, five minutes contact, 37° C., read-out: IC50 (frequency), inhibition of the spontaneous motility of guinea-pig ureters in vitro.
Where [4] appears, read: IC50, inhibition of binding of (3-H)[N-methyl-N-leucine]CCK-8 to the guinea pig cortical membrane, 150 minutes at 25° C.

Regarding `CCCCCN(CCCCC)C(=O)C(CCC(=O)NCC1CCCN1CC)NC(=O)c1ccc(C)c(C)c1` (stereo not drawn) [Compound 58], the IC50 in the experiment on guinea-pig ureters (setting [2]) is 14 µg/mL (≈ 26.5 µM); in the experiment with guinea-pig ureters (setting [3]), 19 µg/mL (≈ 35.9 µM).
In the case of `CN1C(=O)CN=C(c2ccccc2)c2cc(Cl)ccc21` [DIAZEPAM, diazepam, reference compound], in the experiment with mouse (1 mg/kg IP), the “LIGHT TIME (%) TOTAL TIME” value worked out at 29.3%, the “LIGHT TIME (%) TOTAL TIME: % EFF.VS CONTROL” value is given as 19%, the “LIGHT-DARK MOVEMENTS” value came out at 19.9 and the “LIGHT-DARK MOVEMENTS: % EFF. VS CONTROL” value is reported as “+37.2%”. Further, in the experiment on mouse (1 mg/kg IP), the “MOV. DARK (%) TOTAL MOV.” value was found to be 53%, the “MOV. DARK (%) TOTAL MOV.: % EFF. VS CONTROL” value is -5% and the “TOTAL MOV.” value was found to be 508. For the same compound, in the experiment with mouse (3 mg/kg IP), the “LIGHT TIME (%) TOTAL TIME” value was found to be 33.6%, the “LIGHT TIME (%) TOTAL TIME: % EFF.VS CONTROL” value came to 36.7%, the “LIGHT-DARK MOVEMENTS” value turned out to be 22.3 and the “LIGHT-DARK MOVEMENTS: % EFF. VS CONTROL” value is “+53.8%”. For the same compound, in the experiment with mouse (3 mg/kg IP), the “MOV. DARK (%) TOTAL MOV.” value was found to be 52%, the “MOV. DARK (%) TOTAL MOV.: % EFF. VS CONTROL” value is -7% and the “TOTAL MOV.” value turned out to be 539. The “anxiolytic activity in the Black and White Box test (in words)” value with mouse (IP) was “active in a dose-dependent manner for all the parameters tested”.
For `CCCCCN(CCCCC)C(=O)C(CCC(=O)NCCN1CCOCC1)NC(=O)c1ccc(Cl)c(Cl)c1` (stereo not drawn) [Compound 37], the IC50 with guinea-pig ureters (setting [2]) is 8 µg/mL (≈ 14 µM); in the experiment with guinea-pig ureters (setting [3]), 7 µg/mL (≈ 12.2 µM).
On to `COc1ccc(Cc2nccc3cc(OC)c(OC)cc23)cc1OC` [Papaverine, reference compound], for which the half-inhibitory concentration (IC50) was determined as 23 µg/mL (≈ 67.8 µM) in the experiment on guinea-pig ureters (read-out: IC50 (force), inhibition of the spontaneous motility of guinea-pig ureters in vitro) and 27 µg/mL (≈ 79.6 µM) in the experiment with guinea-pig ureters (read-out: IC50 (frequency), inhibition of the spontaneous motility of guinea-pig ureters in vitro).
As to `CCCCCN(CCCCC)C(=O)C(CCC(=O)NCCN1CCOCC1)NC(=O)c1ccc(C(C)C)cc1` (stereo not drawn) [Compound 36], the “activity on guinea-pig ureters (in words)” value with guinea-pig ureters is given as “extremely active”. In addition, the IC50 worked out at 2 µg/mL (≈ 3.67 µM) in the experiment on guinea-pig ureters (setting [2]), 1.5 µg/mL (≈ 2.75 µM) in the experiment on guinea-pig ureters (setting [3]) and 81.3 µM in experiment [1] (setting [4]).
On to `CCCCCN(CCCCC)C(=O)C(CCC(=O)NCCCN(C)C)NC(=O)c1ccc(C)c(C)c1` (stereo not drawn) [Compound 41], for which the IC50 is 20 µg/mL (≈ 39.8 µM) with guinea-pig ureters (setting [2]) and 28 µg/mL (≈ 55.7 µM) in the experiment with guinea-pig ureters (setting [3]).
As for `CCCCCN(CCCCC)C(=O)C(CCC(=O)NCCCN1CCOCC1)NC(=O)c1ccc(C)c(C)c1` (stereo not drawn) [Compound 47], the IC50 was 12 µg/mL (≈ 22 µM) in the experiment on guinea-pig ureters (setting [2]) and 15 µg/mL (≈ 27.5 µM) in the experiment with guinea-pig ureters (setting [3]).
For `CCCCCN(CCCCC)C(=O)[C@@H](CCC(=O)NCCN1CCOCC1)NC(=O)c1ccc(C)c(C)c1` [Compound 45], in that order: 8 µg/mL (≈ 15.1 µM) and 6 µg/mL (≈ 11.3 µM).
Turning to `CCCCCN(CCCCC)C(=O)C(CCC(=O)NCCN(CC)CC)NC(=O)c1ccc(C)c(C)c1` (stereo not drawn) [Compound 42], the values for the IC50 with guinea-pig ureters (setting [2]) and in the experiment with guinea-pig ureters (setting [3]) were 18 µg/mL (≈ 34.8 µM) and 22 µg/mL (≈ 42.6 µM), respectively.
On to `CN1CCN(C(=O)CC[C@@H](NC(=O)c2cccc(Cl)c2)C(=O)N2CCC3(CCCC3)CC2)CC1` [Compound 7], for which the IC50 in experiment [1] (setting [4]) came out at 6.5 µM.
For `CCCCN(CCCC)C(=O)C(CCC(=O)NCCCN1CCOCC1)NC(=O)c1ccc(C)c(C)c1` (stereo not drawn) [Compound 29], the IC50 in the experiment on guinea-pig ureters (setting [2]) worked out at 18 µg/mL (≈ 34.8 µM); with guinea-pig ureters (setting [3]), 17 µg/mL (≈ 32.9 µM).
The compound `CSCC[C@H](NC(=O)[C@H](Cc1c[nH]c2ccccc12)NC(=O)CCNC(=O)OC(C)(C)C)C(=O)N[C@@H](CC(=O)O)C(=O)N[C@@H](Cc1ccccc1)C(N)=O` [pentagastrin, reference compound] registered an IC50 in experiment [1] of 0.003 µM.
`CCCCCN(CCCCC)C(=O)C(CCC(=O)NCCN1CCOCC1)NC(=O)c1ccc(OC)c(OC)c1` (stereo not drawn) [Compound 35]: the IC50 in the experiment with guinea-pig ureters (setting [2]) is 18 µg/mL (≈ 32 µM); with guinea-pig ureters (setting [3]), 16 µg/mL (≈ 28.4 µM).
As to `CN1CCN(CCNC(=O)CC[C@@H](NC(=O)c2cc(Cl)cc(Cl)c2)C(=O)N2CCC3(CCCC3)CC2)CC1` [Compound 6], the IC50 in experiment [1] (setting [4]) was found to be 3.3 µM.
With `CCCCCN(CCCCC)C(=O)C(CCC(=O)NCCN(C)C)NC(=O)c1ccc(C)c(C)c1` (stereo not drawn) [Compound 40], the IC50 with guinea-pig ureters (setting [2]) came out at 27 µg/mL (≈ 55.2 µM); with guinea-pig ureters (setting [3]), 44 µg/mL (≈ 90 µM).
